In article PMC5402990 (PLoS Neglected Tropical Diseases, 2017):

Target: PIKfyve (Homo sapiens, UniProt Q9Y2I7)
Assay type: cell-based

PIKfyve, sequence (Q9Y2I7 whole entry, species assumed): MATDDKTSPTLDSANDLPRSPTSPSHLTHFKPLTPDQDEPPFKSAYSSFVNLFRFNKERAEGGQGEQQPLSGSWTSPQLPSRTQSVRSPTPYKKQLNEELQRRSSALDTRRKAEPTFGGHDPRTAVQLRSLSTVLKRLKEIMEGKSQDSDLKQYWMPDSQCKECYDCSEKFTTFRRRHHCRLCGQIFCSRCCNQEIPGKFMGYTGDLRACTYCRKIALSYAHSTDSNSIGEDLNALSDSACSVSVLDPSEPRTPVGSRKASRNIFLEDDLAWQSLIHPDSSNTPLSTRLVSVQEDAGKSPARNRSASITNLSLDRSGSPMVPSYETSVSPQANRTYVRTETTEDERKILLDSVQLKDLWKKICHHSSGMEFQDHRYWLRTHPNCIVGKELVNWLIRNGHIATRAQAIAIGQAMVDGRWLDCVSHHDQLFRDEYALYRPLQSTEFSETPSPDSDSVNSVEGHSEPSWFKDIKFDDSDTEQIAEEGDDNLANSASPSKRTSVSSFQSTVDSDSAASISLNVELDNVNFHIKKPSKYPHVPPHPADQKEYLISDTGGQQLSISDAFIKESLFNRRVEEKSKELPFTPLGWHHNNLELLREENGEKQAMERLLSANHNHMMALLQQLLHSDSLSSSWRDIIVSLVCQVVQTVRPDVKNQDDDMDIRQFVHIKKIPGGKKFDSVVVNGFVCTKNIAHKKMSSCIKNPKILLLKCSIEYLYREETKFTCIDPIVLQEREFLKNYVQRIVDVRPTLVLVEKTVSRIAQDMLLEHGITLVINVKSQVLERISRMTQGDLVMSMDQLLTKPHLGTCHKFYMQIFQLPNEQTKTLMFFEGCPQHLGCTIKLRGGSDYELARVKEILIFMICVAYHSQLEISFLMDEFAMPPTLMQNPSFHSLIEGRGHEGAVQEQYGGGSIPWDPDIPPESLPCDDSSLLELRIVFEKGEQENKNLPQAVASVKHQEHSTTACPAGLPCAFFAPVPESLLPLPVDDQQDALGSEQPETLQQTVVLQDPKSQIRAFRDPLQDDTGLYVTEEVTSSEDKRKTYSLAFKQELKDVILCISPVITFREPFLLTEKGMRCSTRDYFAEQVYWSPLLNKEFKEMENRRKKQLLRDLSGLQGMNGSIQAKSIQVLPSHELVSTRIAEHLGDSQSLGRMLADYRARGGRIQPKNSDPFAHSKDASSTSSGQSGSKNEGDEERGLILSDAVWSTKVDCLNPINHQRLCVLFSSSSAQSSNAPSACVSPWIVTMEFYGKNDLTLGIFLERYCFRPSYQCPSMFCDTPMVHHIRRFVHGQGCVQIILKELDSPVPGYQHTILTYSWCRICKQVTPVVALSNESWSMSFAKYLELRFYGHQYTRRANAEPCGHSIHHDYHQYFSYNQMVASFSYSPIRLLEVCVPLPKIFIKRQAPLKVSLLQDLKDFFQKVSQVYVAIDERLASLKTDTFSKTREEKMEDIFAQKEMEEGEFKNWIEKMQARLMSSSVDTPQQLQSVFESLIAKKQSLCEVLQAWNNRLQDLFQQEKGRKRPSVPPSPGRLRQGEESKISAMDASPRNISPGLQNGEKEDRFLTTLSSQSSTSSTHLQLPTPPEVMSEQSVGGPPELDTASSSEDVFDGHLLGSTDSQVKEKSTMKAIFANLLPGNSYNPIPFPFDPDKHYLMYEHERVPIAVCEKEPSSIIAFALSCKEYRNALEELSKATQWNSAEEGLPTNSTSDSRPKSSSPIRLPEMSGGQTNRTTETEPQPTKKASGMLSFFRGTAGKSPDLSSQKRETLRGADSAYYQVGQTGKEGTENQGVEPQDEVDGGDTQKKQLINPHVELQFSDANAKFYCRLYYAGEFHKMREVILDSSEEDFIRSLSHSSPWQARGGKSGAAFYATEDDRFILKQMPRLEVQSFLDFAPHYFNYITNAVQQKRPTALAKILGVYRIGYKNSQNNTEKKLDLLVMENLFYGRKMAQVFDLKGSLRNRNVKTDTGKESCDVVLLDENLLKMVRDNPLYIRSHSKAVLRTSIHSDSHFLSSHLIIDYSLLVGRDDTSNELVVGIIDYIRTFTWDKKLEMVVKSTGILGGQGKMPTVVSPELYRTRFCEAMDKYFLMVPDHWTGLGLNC

`Cc1cccc(/C=N/Nc2cc(N3CCOCC3)nc(OCCc3ccccn3)n2)c1` [Apilimod, apilimod] was tested, and the “dose needed to inhibit EBOV GP-mediated infection in GFP-PIKfyve vs. GFP expressing cells” value was “higher doses of apilimod were needed to achieve similar levels of inhibition”.
